Assay results taken from patent US8372863B2, “Tetrahydro-1H-pyrrolo fused pyridones” (Merck Sharp & Dohme Corp., priority 2008, dated 2013).
Structures can show the parent of a compound that is named as a salt.

Molecular target: PHD2 (Homo sapiens, UniProt Q9GZT9)
Test: PHD2 / HIF-1α peptide hydroxylation assay with time resolved fluorescence readout (PHD2 binding activity)
Format: biochemical
Settings: FLAG-tagged full length PHD2; 0.2 μM 2-oxoglutarate, 0.5 μM HIF-1α peptide; read-out: PHD2 Activity (PHD2 binding activity expressed as IC50)
Experimental: After a 30 min preincubation at room temperature, the enzymatic reactions were initiated by the addition of 4 μL of substrates (final concentrations of 0.2 μM 2-oxoglutarate and 0.5 μM HIF-1α peptide biotinyl-DLDLEMLAPYIPMDDDFQL). After 2 hr at room temperature, the reactions were terminated and signals were developed by the addition of a 25 μL quench/detection mix to a final concentration of 1 mM ortho-phenanthroline, 0.1 mM EDTA, 0.5 nM anti-(His)6 LANCE reagent (Perkin-Elmer Life Sciences), 100 nM AF647-labeled streptavidin (Invitrogen), and 2 μg/ml (His)6-VHL complex (S. Tan(2001) Protein Expr. Purif 21, 224-234). The ratio of time resolved fluorescence signals at 665 and 620 nm was determined, and percent inhibition was calculated relative to an uninhibited control sample run in parallel.

PHD2, sequence (Q9GZT9 whole entry): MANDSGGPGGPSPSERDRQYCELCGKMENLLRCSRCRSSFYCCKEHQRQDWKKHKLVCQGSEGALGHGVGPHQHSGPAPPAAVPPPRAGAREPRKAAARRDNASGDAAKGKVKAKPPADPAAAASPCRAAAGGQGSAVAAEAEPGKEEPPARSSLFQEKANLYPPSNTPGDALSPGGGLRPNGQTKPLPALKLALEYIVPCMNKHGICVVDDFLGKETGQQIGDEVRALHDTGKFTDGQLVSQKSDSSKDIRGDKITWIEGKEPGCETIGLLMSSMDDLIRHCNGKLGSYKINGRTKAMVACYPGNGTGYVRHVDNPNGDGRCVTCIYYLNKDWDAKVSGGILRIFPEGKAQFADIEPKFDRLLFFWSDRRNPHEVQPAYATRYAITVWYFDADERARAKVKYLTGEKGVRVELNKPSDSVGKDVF

Q: `O=C(O)CNC(=O)c1c(O)c2c(n(Cc3ccc(C(F)(F)F)cc3)c1=O)CN(C(=O)c1ccc(Cl)cc1)C2` [Example 21, N-({6-(4-chlorobenzoyl)-4-hydroxy-2-oxo-1-[4-(trifluoromethyl)benzyl]-2,5,6,7-tetrahydro-1H-pyrrolo[3,4-b]pyridin-3-yl}carbonyl)glycine] was tested. Which IC50 did it give?
A: < 10 nM

Q: For `CCOC(=O)N1Cc2c(O)c(C(=O)NCC(=O)O)c(=O)n(Cc3ccc(-c4ccccc4)cc3)c2C1` [Example 22, N-{[1-(biphenyl-4-ylmethyl)-6-(ethoxycarbonyl)-4-hydroxy-2-oxo-2,5,6,7-tetrahydro-1H-pyrrolo[3,4-b]pyridin-3-yl]carbonyl}glycine], which IC50 is on record?
A: < 10 nM

Q: How did the IC50 turn out when `Cc1cc(C(=O)N2Cc3c(O)c(C(=O)NCC(=O)O)c(=O)n(Cc4ccc(C(F)(F)F)cc4)c3C2)n(C)n1` [Example 23, N-({6-[(1,3-dimethyl-1H-pyrazol-5-yl)carbonyl]-4-hydroxy-2-oxo-1-[4-(trifluoromethyl)benzyl]-2,5,6,7-tetrahydro-1H-pyrrolo[3,4-b]pyridin-3-yl}carbonyl)glycine] was run?
A: < 10 nM

Q: How did the IC50 turn out when `O=C(O)CNC(=O)c1c(O)c2c(n(Cc3ccc(C(F)(F)F)cc3)c1=O)CN(C(=O)c1cc3ncccn3n1)C2` [Example 24, N-({4-hydroxy-2-oxo-6-(pyrazolo[1,5-a]pyrimidin-2-ylcarbonyl)-1-[4-(trifluoromethyl)benzyl]-2,5,6,7-tetrahydro-1H-pyrrolo[3,4-b]pyridin-3-yl}carbonyl)glycine] was run?
A: < 10 nM

Q: With `O=C(O)CNC(=O)c1c(O)c2c(n(Cc3ccc(C(F)(F)F)cc3)c1=O)CN(C(=O)c1cccnc1)C2` [Example 25, N-({4-hydroxy-2-oxo-6-(pyridin-3-ylcarbonyl)-1-[4-(trifluoromethyl)benzyl]-2,5,6,7-tetrahydro-1H-pyrrolo[3,4-b]pyridin-3-yl}carbonyl)glycine] as the compound, how does the IC50 read?
A: < 10 nM

Q: Which IC50 does the source give for `Cc1ccc(C(=O)N2Cc3c(O)c(C(=O)NCC(=O)O)c(=O)n(Cc4ccc(C(F)(F)F)cc4)c3C2)cn1` [Example 26, N-({4-hydroxy-6-[(6-methylpyridin-3-yl)carbonyl]-2-oxo-1-[4-(trifluoromethyl)benzyl]-2,5,6,7-tetrahydro-1H-pyrrolo[3,4-b]pyridin-3-yl}carbonyl)glycine] here?
A: < 10 nM

Q: For `CN1CCC[C@H]1C(=O)N1Cc2c(O)c(C(=O)NCC(=O)O)c(=O)n(Cc3ccc(C(F)(F)F)cc3)c2C1` [Example 27, N-({4-hydroxy-6-(1-methyl-L-prolyl)-2-oxo-1-[4-(trifluoromethyl)benzyl]-2,5,6,7-tetrahydro-1H-pyrrolo[3,4-b]pyridin-3-yl}carbonyl)glycine], which IC50 is on record?
A: < 10 nM

Q: With `O=C(O)CNC(=O)c1c(O)c2c(n(Cc3ccc(C(F)(F)F)cc3)c1=O)CN(C(=O)[C@@H]1CCC(=O)N1)C2` [Example 28, N-({4-hydroxy-2-oxo-6-(5-oxo-L-prolyl)-1-[4-(trifluoromethyl)benzyl]-2,5,6,7-tetrahydro-1H-pyrrolo[3,4-b]pyridin-3-yl}carbonyl)glycine] as the compound, how does the IC50 read?
A: < 10 nM

Q: How did the IC50 turn out when `O=C(O)CNC(=O)c1c(O)c2c(n(Cc3ccc(C(F)(F)F)cc3)c1=O)CN(C(=O)c1cscn1)C2` [Example 29, N-({4-hydroxy-2-oxo-6-(1,3-thiazol-4-ylcarbonyl)-1-[4-(trifluoromethyl)benzyl]-2,5,6,7-tetrahydro-1H-pyrrolo[3,4-b]pyridin-3-yl}carbonyl)glycine] was run?
A: < 10 nM

Q: How did the IC50 turn out when `O=C(O)CNC(=O)c1c(O)c2c(n(Cc3ccc(C(F)(F)F)cc3)c1=O)CN(C(=O)c1cncs1)C2` [Example 30, N-({4-hydroxy-2-oxo-6-(1,3-thiazol-5-ylcarbonyl)-1-[4-(trifluoromethyl)benzyl]-2,5,6,7-tetrahydro-1H-pyrrolo[3,4-b]pyridin-3-yl}carbonyl)glycine] was run?
A: < 10 nM

Q: `Cc1cc(C(=O)N2Cc3c(O)c(C(=O)NCC(=O)O)c(=O)n(Cc4ccc(C(F)(F)F)cc4)c3C2)nn1C` [Example 31, N-({6-[(1,5-dimethyl-1H-pyrazol-2-ium-3-yl)carbonyl]-4-hydroxy-2-oxo-1-[4-(trifluoromethyl)benzyl]-2,5,6,7-tetrahydro-1H-pyrrolo[3,4-b]pyridin-3-yl}carbonyl)glycine chloride] was tested. Which IC50 did it give?
A: < 10 nM

Q: How did the IC50 turn out when `O=C(O)CNC(=O)c1c(O)c2c(n(Cc3ccc(C(F)(F)F)cc3)c1=O)CN(C(=O)c1ccno1)C2` [Example 33, N-({4-hydroxy-6-(isoxazol-5-ylcarbonyl)-2-oxo-1-[4-(trifluoromethyl)benzyl]-2,5,6,7-tetrahydro-1H-pyrrolo[3,4-b]pyridin-3-yl}carbonyl)glycine] was run?
A: 10 to 100 nM

Q: How did the IC50 turn out when `O=C(O)CNC(=O)c1c(O)c2c(n(Cc3ccc(C(F)(F)F)cc3)c1=O)CN(C(=O)c1nccs1)C2` [Example 34, N-({4-hydroxy-2-oxo-6-(1,3-thiazol-2-ylcarbonyl)-1-[4-(trifluoromethyl)benzyl]-2,5,6,7-tetrahydro-1H-pyrrolo[3,4-b]pyridin-3-yl}carbonyl)glycine] was run?
A: < 10 nM

Q: `O=C(O)CNC(=O)c1c(O)c2c(n(Cc3ccc(C(F)(F)F)cc3)c1=O)CN(C(=O)c1csnn1)C2` [Example 35, N-({4-hydroxy-2-oxo-6-(1,2,3-thiadiazol-4-ylcarbonyl)-1-[4-(trifluoromethyl)benzyl}-2,5,6,7-tetrahydro-1H-pyrrolo[3,4-b]pyridin-3-yl}carbonyl)glycine] was tested. Which IC50 did it give?
A: < 10 nM

Q: `O=C(O)CNC(=O)c1c(O)c2c(n(Cc3ccc(C(F)(F)F)cc3)c1=O)CN(C(=O)c1cocn1)C2` [Example 37, N-({4-hydroxy-6-(1,3-oxazol-4-ylcarbonyl)-2-oxo-1-[4-(trifluoromethyl)benzyl]-2,5,6,7-tetrahydro-1H-pyrrolo[3,4-b]pyridin-3-yl}carbonyl)glycine] was tested. Which IC50 did it give?
A: < 10 nM

Q: How did the IC50 turn out when `O=C(O)CNC(=O)c1c(O)c2c(n(Cc3ccc(-c4ccccc4)cc3)c1=O)CN(C(=O)c1cscn1)C2` [Example 38, N-{[1-(biphenyl-4-ylmethyl)-4-hydroxy-2-oxo-6-(1,3-thiazol-4-ylcarbonyl)-2,5,6,7-tetrahydro-1H-pyrrolo[3,4-b]pyridin-3-yl]carbonyl}glycine] was run?
A: < 10 nM

Q: How did the IC50 turn out when `O=C(O)CNC(=O)c1c(O)c2c(n(Cc3ccc(C(F)(F)F)cc3)c1=O)CN(Cc1ccc(Cl)cc1)C2` [Example 39, N-({6-(4-chlorobenzyl)-4-hydroxy-2-oxo-1-[4-(trifluoromethyl)benzyl]-2,5,6,7-tetrahydro-1H-pyrrolo[3,4-b]pyridin-6-ium-3-yl}carbonyl)glycine trifluoroacetate] was run?
A: < 10 nM

Q: With `O=C(O)CNC(=O)c1c(O)c2c(n(Cc3ccc(C(F)(F)F)cc3)c1=O)CN(Cc1cccc(Cl)c1)C2` [Example 40, N-({6-(3-chlorobenzyl)-4-hydroxy-2-oxo-1-[4-(trifluoromethyl)benzyl]-2,5,6,7-tetrahydro-1H-pyrrolo[3,4-b]pyridin-6-ium-3-yl}carbonyl)glycine chloride] as the compound, how does the IC50 read?
A: 10 to 100 nM

Q: `CCN1Cc2c(O)c(C(=O)NCC(=O)O)c(=O)n(Cc3ccc(C(F)(F)F)cc3)c2C1` [Example 41, N-({6-ethyl-4-hydroxy-2-oxo-1-[4-(trifluoromethyl)benzyl]-2,5,6,7-tetrahydro-1H-pyrrolo[3,4-b]pyridin-6-ium-3-yl}carbonyl)glycine trifluoroacetate] was tested. Which IC50 did it give?
A: 10 to 100 nM

Q: With `N#Cc1cccnc1N1Cc2c(O)c(C(=O)NCC(=O)O)c(=O)n(Cc3ccc(C(F)(F)F)cc3)c2C1` [Example 42, N-({6-(3-cyanopyridinium-2-yl)-4-hydroxy-2-oxo-1-[4-(trifluoromethyl)benzyl]-2,5,6,7-tetrahydro-1H-pyrrolo[3,4-b]pyridin-3-yl}carbonyl)glycine trifluoroacetate] as the compound, how does the IC50 read?
A: < 10 nM
